Laboratory results from ChEMBL document CHEMBL1201862, “PubChem BioAssay data set” (2004).
Calls of active or inactive are those of the source.

Assays:
[1] = inhibitors of firefly luciferase expression or activity, dose response, H4 neuroglioma cells, luminescence (AID 1990); type: functional, cell-based
[2] = Luminescence Cell-Based Dose Response HTS to Identify Inhibitors of 5'UTR Stem-Loop Driven Prion Protein mRNA Translation in H4 Neuroglioblastoma Cells. [Related pubchem assays: 1827 (Project Summary), 1813 (Primary HTS)]; type: functional
[3] = inhibitors of SNCA 5'UTR-driven reporter translation, confirmation, H4 neuroglioma cells, luminescence (AID 1988); type: functional, cell-based
[4] = target: T1, Corticotropin-releasing factor receptor 2/Corticotropin-releasing factor-binding protein (Homo sapiens, UniProt P24387+Q13324); assay: Dose Response confirmation of uHTS hits for small molecule antagonists of the CRF-binding protein and CRF-R2 receptor complex.; type: functional; conditions: read-out: IC50_Mean
T1 sequence (Q13324 whole entry): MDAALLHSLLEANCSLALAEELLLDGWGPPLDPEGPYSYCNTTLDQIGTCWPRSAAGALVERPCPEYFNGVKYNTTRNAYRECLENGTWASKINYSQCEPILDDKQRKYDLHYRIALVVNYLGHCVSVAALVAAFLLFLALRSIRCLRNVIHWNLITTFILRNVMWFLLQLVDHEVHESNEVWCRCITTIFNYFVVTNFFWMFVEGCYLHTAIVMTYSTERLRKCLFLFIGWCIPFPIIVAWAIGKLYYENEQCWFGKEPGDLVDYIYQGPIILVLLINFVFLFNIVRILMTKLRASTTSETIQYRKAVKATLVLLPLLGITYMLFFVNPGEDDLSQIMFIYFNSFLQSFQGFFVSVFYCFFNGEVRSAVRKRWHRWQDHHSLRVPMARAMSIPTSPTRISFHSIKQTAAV
T1 sequence (P24387 whole entry): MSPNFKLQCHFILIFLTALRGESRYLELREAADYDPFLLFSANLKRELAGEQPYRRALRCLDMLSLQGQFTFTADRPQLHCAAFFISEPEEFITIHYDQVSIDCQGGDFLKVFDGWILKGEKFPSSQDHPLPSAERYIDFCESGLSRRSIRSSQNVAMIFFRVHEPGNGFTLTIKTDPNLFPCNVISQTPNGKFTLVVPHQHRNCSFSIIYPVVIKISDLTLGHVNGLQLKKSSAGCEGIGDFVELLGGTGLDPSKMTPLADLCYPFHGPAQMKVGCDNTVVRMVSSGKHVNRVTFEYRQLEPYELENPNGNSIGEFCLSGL

[5] = target: T1, Corticotropin-releasing factor receptor 2/Corticotropin-releasing factor-binding protein; assay: activators of CRF receptor 2 with binding protein – uHTS hits, confirmation (AID 602473); type: functional; conditions: read-out: EC50_Mean
[6] = growth suppression of PTEN-null colon cells, dose response, cell-based, HCT116 PTEN knockout (AID 1047); type: functional;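 note: HCT116 colon tumor cells with PTEN knocked out; cells exposed to compound for 60 hours before readout; potency for loss of cell viability measured by luminescence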
[7] = growth suppression of beta-catenin-knockout colon cells, dose response, cell-based, HCT116, human colon tumor (AID 1045); type: functional;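 note: HCT116 colon tumor cells with beta catenin knocked out; cells exposed to compound for 60 hours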
[8] = tested on: INS1; assay: beta cell apoptosis inhibitors, cytokine rescue, dose response, luminescence, retest (AID 449756); type: functional, cell-based; conditions: Rattus norvegicus;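 note: cell death triggered by IL-1 beta plus TNF-alpha plus IFN-gamma mixture; protective hits raise ATP signal compared with cytokine alone wells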
[9] = tested on: Vero; assay: cells; type: functional; conditions: Chlorocebus sabaeus
[10] = target: T2, Polyadenylate-binding protein 1 (Homo sapiens, UniProt P11940); assay: PABP1 MLLE–PAM2 interaction inhibitors, dose response, miRNA deadenylation inhibitor project, biochemical, fluorescence polarization, Cy5-PAM2 peptide, secondary (AID 602260); type: functional; conditions: read-out: IC50_Mean
[11] = target: T2, Polyadenylate-binding protein 1; assay: PABP1 MLLE–PAM2 binding inhibitor potency, dose response, biochemical, fluorescence polarization, FITC-PAM2 peptide (AID 602259); type: functional; conditions: read-out: IC50_Mean
[12] = target: Cytochrome P450 2C9 (Homo sapiens, UniProt P11712)
[13] = tested on: Streptococcus sp. 'group A'; assay: growth inhibition of control SK(-) GAS strain, dose response, counter-screen for streptokinase expression inhibitor project, luminescence, kanamycin, BacTiterGlo, confirmation (AID 1900); type: functional, organism-based
[14] = target: T3, Streptokinase A (Streptococcus pyogenes serotype M1, UniProt P10520); assay: S. pyogenes streptokinase expression inhibitors, potency, dose response, plasminogen activation absorbance, OD405 (AID 1914); type: functional, Streptococcus pyogenes M1 GAS;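 note: secreted streptokinase activity via plasminogen activation per viability signal from cell pellet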
T3 sequence (P10520 whole entry): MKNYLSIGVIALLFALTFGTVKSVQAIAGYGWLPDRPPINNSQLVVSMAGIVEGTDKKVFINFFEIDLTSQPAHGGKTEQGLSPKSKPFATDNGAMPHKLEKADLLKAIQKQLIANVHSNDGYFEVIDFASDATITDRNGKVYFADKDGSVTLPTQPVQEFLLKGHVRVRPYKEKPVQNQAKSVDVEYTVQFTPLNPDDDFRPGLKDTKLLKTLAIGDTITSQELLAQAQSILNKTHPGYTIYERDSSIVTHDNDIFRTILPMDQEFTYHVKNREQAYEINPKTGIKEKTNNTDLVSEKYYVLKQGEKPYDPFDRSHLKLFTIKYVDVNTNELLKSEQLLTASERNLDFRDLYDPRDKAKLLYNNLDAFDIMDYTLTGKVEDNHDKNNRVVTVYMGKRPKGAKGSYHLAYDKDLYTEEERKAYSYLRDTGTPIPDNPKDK

[15] = tested on: Streptococcus; assay: Group A Streptococcus viability loss, dose response, counter-screen for streptokinase expression inhibitor project, luminescence, BacTiterGlo (AID 1915); type: functional, organism-based;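 note: potency for reduction of bacterial viability or growth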
[16] = Luminescence Cell-Based Dose Retest to Confirm Inhibitors of Cancer Stem Cells. [Related pubchem assays (depositor defined):AID2717, AID2721]; type: functional; conditions: Homo sapiens
[17] = target: T4, Cytochrome P450 1A2 (Homo sapiens, UniProt P05177);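 note: PubChem cytochrome P450 panel assay, CYP1A2 panel member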
T4 sequence (P05177 whole entry): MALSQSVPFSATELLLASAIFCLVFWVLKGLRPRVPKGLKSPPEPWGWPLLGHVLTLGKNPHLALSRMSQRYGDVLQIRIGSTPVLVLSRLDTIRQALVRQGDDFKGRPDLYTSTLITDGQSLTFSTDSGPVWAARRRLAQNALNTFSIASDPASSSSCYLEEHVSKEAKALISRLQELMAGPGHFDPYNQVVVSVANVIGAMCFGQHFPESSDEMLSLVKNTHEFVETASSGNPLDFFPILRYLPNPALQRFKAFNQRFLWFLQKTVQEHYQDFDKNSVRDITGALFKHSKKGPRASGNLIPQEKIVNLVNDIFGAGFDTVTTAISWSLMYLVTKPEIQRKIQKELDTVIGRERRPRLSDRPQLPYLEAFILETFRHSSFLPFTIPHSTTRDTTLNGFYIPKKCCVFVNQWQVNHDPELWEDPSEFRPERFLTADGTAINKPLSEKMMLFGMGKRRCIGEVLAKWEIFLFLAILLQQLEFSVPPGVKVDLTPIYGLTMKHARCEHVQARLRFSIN

Chain of Cytochrome P450 2C9 (P11712 whole entry): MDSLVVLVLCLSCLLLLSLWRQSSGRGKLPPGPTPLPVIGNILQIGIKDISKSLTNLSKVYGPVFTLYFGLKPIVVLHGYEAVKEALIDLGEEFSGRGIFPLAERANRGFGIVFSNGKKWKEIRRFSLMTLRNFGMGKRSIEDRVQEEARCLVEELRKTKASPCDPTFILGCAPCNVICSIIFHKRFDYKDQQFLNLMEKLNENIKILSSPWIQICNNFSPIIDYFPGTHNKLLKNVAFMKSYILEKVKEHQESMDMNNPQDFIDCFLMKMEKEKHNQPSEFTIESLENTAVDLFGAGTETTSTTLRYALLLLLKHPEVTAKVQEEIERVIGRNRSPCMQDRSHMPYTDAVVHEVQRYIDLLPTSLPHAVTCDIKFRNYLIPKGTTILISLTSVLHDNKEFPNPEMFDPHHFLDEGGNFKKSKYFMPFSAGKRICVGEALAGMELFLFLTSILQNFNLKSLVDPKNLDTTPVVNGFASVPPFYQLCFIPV
T2 sequence (P11940 whole entry): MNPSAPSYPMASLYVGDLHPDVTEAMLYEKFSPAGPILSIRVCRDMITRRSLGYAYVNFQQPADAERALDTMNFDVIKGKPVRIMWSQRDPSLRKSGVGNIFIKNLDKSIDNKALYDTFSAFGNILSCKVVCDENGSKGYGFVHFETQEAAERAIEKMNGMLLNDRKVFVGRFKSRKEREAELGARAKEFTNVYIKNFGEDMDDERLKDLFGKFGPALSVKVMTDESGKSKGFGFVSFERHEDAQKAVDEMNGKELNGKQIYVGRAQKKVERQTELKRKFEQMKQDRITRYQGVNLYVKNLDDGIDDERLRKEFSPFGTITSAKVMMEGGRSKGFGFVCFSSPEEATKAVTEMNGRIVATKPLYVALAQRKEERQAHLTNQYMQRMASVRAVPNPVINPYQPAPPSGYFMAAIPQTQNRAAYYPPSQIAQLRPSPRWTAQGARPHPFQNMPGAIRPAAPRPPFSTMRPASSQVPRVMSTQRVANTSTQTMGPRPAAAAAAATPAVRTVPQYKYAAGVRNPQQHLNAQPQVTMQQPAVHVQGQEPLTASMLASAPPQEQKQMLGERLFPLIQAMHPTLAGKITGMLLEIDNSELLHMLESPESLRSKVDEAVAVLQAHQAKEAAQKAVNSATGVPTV

For COCCn1c(SCC(=O)Nc2cccc(C(=O)OC)c2)nc2ccccc2c1=O, the EC50 [1] was 36.7 µM (active), the EC50 [2] was > 120 µM (not active) and the EC50 [3] was 15.2 µM (active). For the same compound, the IC50 [4] was > 47.1 µM (inactive) and the EC50 [5] was > 53 µM (inactive).

For O=C(c1cccc(Cl)c1)c1nn(-c2ccccc2)c(=O)cc1C(F)(F)F, the EC50 [6] was 10.6 µM (active), the EC50 [7] was 12.3 µM (active) and the AC50 [8] was 23.8 µM (active).

With Cn1ncc2c(Nc3ccc(-c4ccccc4)cc3)ncnc21 the CC50 [9] was > 25 µM (active).

For Cc1ccccc1C(=O)Nc1ccc2c(C#N)c3nc4ccccc4nc3n2c1, the EC50 [6] was 6.62 µM (active) and the EC50 [7] was 5.34 µM (active).

For O=[N+]([O-])c1cccc(C(=S)N2CCN(c3ccccc3F)CC2)c1, the IC50 [10] was > 66 µM (inactive) and the IC50 [11] was > 66 µM (inactive).

With CC(C)(C)n1nc2c(c1NC(=O)c1cc3ccccc3o1)CSC2 the IC50 [10] was > 66 µM (inactive) and the IC50 [11] was > 66 µM (inactive).

For COc1ccccc1COC(=O)Nc1c(C)nn(C)c1Cl, the AC50 [12] was “inconclusive”.

In the case of CCc1c(C)sc(NC(=O)c2ccco2)c1C(=O)N1CCOCC1, the IC50 [10] is reported as > 66 µM (inactive) and the IC50 [11] is reported as > 66 µM (inactive).

In the case of O=C(C[n+]1nc(CNc2ccc(Cl)cc2)n2c1CCCCC2)c1ccc(Br)cc1, the EC50 [13] is reported as 5.64 µM (active), the EC50 [14] is reported as 12.5 µM (active) and the EC50 [15] is reported as 84.2 µM (active). The IC50 [4] was > 47.1 µM (inactive) and the EC50 [5] was > 53 µM (inactive).

With O=C1c2cccc3c(Cl)ccc(c23)C(=O)N1O the AC50 [12] was “inconclusive”.

For CCN(CC)c1ccc(C(=O)OCc2cc(=O)oc3cc(O)ccc23)cc1, the EC50 [1] was 9 µM (active), the EC50 [13] was 16.1 µM (active) and the EC50 [2] was > 120 µM (not active). The EC50 [3] was 10.5 µM (active), the EC50 [14] was 128 µM (active) and the EC50 [6] was 7.3 µM (active). The EC50 [7] was 5.62 µM (active), the EC50 [15] was > 150 µM (not active) and the AC50 [16] was 4.72 µM (active). The AC50 [17] was 2.24 µM (inconclusive) and the AC50 [12] was “inconclusive”.

With COc1ccc(O)c(C(=O)CC(=O)c2ccccc2C)c1 the EC50 [13] was 6.85 µM (active), the EC50 [14] was > 150 µM (not active) and the EC50 [15] was 49.1 µM (active). The CC50 [9] was 20.4 µM (active).

In the case of Cn1c(Cc2cccc3ccccc23)nnc1SCC(=O)N1CCN(c2ccccc2)CC1, the AC50 [12] is reported as “inconclusive”.
